How the values were obtained:
Experiment in all cases: relative viability (nuclei count vs DMSO), 5 days (fraction); higher = more cells survive
[1] = compound: CN(c1ncccc1CNc1nc(Nc2ccc3c(c2)CC(=O)N3)ncc1C(F)(F)F)S(C)(=O)=O + CS(=O)(=O)CCNCc1ccc(-c2ccc3ncnc(Nc4ccc(OCc5cccc(F)c5)c(Cl)c4)c3c2)o1 [Lapatinib] (partner 2 µM)
In short: (§1)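 Relative viability divides the nuclei count in treated wells by that in vehicle wells. Lung cancer cell lines were seeded in 1536-well plates, dosed by pin tool the next day, and fixed and stained after 5 days in one step with final 0.05% Triton X-100, 1% formaldehyde and 1 ug/ml Hoechst. Dosing was a single drug or a fixed anchor-drug dose plus five library-drug doses (not always all listed) in √10 steps, and values are medians of duplicate plates imaged at 4×.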

[2] = compound: CN(c1ncccc1CNc1nc(Nc2ccc3c(c2)CC(=O)N3)ncc1C(F)(F)F)S(C)(=O)=O + C[C@@H](Oc1cc(-c2cnn(C3CCNCC3)c2)cnc1N)c1c(Cl)ccc(F)c1Cl [Crizotinib] (partner 1 µM)
In short: as §1

[3] = compound: CN(c1ncccc1CNc1nc(Nc2ccc3c(c2)CC(=O)N3)ncc1C(F)(F)F)S(C)(=O)=O + Cc1cc(Nc2cc(N3CCN(C)CC3)nc(Sc3ccc(NC(=O)C4CC4)cc3)n2)n[nH]1 [Tozasertib] (partner 0.1 µM)
In short: as §1

[4] = compound: CN(c1ncccc1CNc1nc(Nc2ccc3c(c2)CC(=O)N3)ncc1C(F)(F)F)S(C)(=O)=O + Nc1ncn([C@H]2C[C@H](O)[C@@H](CO)O2)c(=O)n1 [Decitabine] (partner 2 µM)
In short: as §1

Cell Line	relative viability ([1]; first compound 0.01 µM)	relative viability ([1]; first compound 0.03162 µM)	relative viability ([1]; first compound 0.1 µM)	relative viability ([1]; first compound 0.3162 µM)	relative viability ([1]; first compound 1 µM)	relative viability ([2]; first compound 0.01 µM)	relative viability ([2]; first compound 0.03162 µM)	relative viability ([2]; first compound 0.1 µM)	relative viability ([2]; first compound 0.3162 µM)	relative viability ([2]; first compound 1 µM)	relative viability ([3]; first compound 0.01 µM)	relative viability ([3]; first compound 0.03162 µM)	relative viability ([3]; first compound 0.1 µM)	relative viability ([3]; first compound 0.3162 µM)	relative viability ([3]; first compound 1 µM)	relative viability ([4]; first compound 0.01 µM)	relative viability ([4]; first compound 0.03162 µM)	relative viability ([4]; first compound 0.1 µM)	relative viability ([4]; first compound 0.3162 µM)	relative viability ([4]; first compound 1 µM)
201T	1.08	1	0.962	0.924	0.988	1.05	0.991	1.02	0.975	1	0.921	1	0.912	0.845	0.894	0.846	0.856	0.808	0.85	0.771
A-427	1.05	1.05	1	1.04	1.02	0.916	0.964	0.951	0.783	0.725	0.223	0.191	0.207	0.186	0.211	0.549	0.568	0.588	0.664	0.61
ABC-1	1.29	1.15	1.36	1.13	1.21	1.12	1.21	1.09	1.15	1.17	0.173	0.161	0.158	0.137	0.172	1.01	1.17	0.949	0.944	1.09
BEN	0.699	0.689	0.654	0.715	0.686	0.825	0.949	0.813	0.848	0.848	0.416	0.562	0.506	0.541	0.471	0.739	0.739	0.715	0.763	0.671
CAL-12T	0.65	0.663	0.43	0.591	0.627	0.619	0.538	0.576	0.566	0.593	0.271	0.249	0.274	0.271	0.209					
COR-L23	0.924	1.16	0.92	0.883	0.628	0.653	0.649	0.7	0.594	0.486	0.184	0.195	0.186	0.146	0.129	0.417	0.493	0.44	0.503	0.399
COR-L 105	0.335	0.387	0.355	0.355	0.341	0.64	0.649	0.779	0.747	0.47	0.365	0.322	0.341	0.399	0.247	0.762	0.68	0.728	0.733	0.697
Calu-6	1.05	1.12	1	1	0.912	0.809	0.828	0.774	0.725	0.546										
ChaGo-K-1						1.1	1.21	1.08		1.05	0.233	0.231	0.223	0.236	0.205	0.565	0.549	0.438	0.527	0.492
EBC-1	0.217	0.187	0.248	0.204	0.2	0.204	0.195	0.216	0.2	0.186										
EKVX	0.182	0.188	0.218	0.119	0.514	0.895	0.828	0.98	0.801	0.789	0.456	0.428	0.454	0.339	0.316	0.372	0.327	0.301	0.342	0.335
EMC-BAC-2	0.956	0.902	0.876	0.899	0.838	0.798	0.817	0.717	0.78	0.778	0.302	0.283	0.287	0.255	0.246	0.994	1.02	0.915	0.963	0.982
EPLC-272H	0.921	0.914	0.884	0.965	1.09	0.912	0.873	0.888	0.968	0.93	0.346	0.234	0.314	0.278	0.182	0.367	0.339	0.357	0.397	0.336
H3255	0.24	0.221	0.237	0.192	0.252	0.945	1.03	0.832	0.663	0.839	0.808	0.599	0.775	0.571	0.51	0.633	0.587	0.572	0.552	0.615
HARA	0.763	0.692	0.616	0.678	0.665	0.938	0.938	1	1.02	0.698	0.11	0.117	0.116	0.0944	0.0785	0.66	0.599	0.492	0.597	0.573
HCC-15	0.876	0.905	0.72	0.775	0.723	0.821	0.746	0.739	0.707	0.6	0.418	0.555	0.44	0.32	0.254	0.639	0.629	0.548	0.496	0.523

Cell Line	relative viability ([1]; first compound 0.01 µM)	relative viability ([1]; first compound 0.03162 µM)	relative viability ([1]; first compound 0.1 µM)	relative viability ([1]; first compound 0.3162 µM)	relative viability ([1]; first compound 1 µM)	relative viability ([2]; first compound 0.01 µM)	relative viability ([2]; first compound 0.03162 µM)	relative viability ([2]; first compound 0.1 µM)	relative viability ([2]; first compound 0.3162 µM)	relative viability ([2]; first compound 1 µM)	relative viability ([3]; first compound 0.01 µM)	relative viability ([3]; first compound 0.03162 µM)	relative viability ([3]; first compound 0.1 µM)	relative viability ([3]; first compound 0.3162 µM)	relative viability ([3]; first compound 1 µM)	relative viability ([4]; first compound 0.01 µM)	relative viability ([4]; first compound 0.03162 µM)	relative viability ([4]; first compound 0.1 µM)	relative viability ([4]; first compound 0.3162 µM)	relative viability ([4]; first compound 1 µM)
HCC-44	1.09	0.986	0.987	0.993	0.972	0.876	0.893	0.798	0.788	0.749	1.02	0.926	0.94		0.804	0.871	0.956	0.898	0.977	0.996
HCC-78	1.09	0.748	0.708	0.713	0.329	0.379	0.342	0.305	0.29	0.319	0.463	0.428	0.427	0.45	0.332	0.755	0.699	0.719	0.636	0.697
HCC-366	1	1.11	1.05	1.06	0.971	0.588	0.964	0.509	0.606	0.236	0.129	0.143	0.126	0.0925	0.0651	0.332	0.369	0.327	0.354	0.307
HCC-827	0.186	0.149	0.215	0.177	0.182	0.893	0.905	1	0.893	0.851	0.372	0.455	0.401	0.436	0.43	0.284	0.309	0.348	0.413	0.391
IA-LM	0.884	0.82	0.887	0.608	0.56	0.862	0.924	0.908	0.91	0.714										
LCLC-103H						1.14	1.08	1.11	0.906	0.895	0.469	0.457	0.414	0.415	0.466	0.68	0.673	0.697	0.672	0.684
NCI-H441						0.679	0.825	0.604	0.692	0.654	0.697	0.628	0.581	0.583	0.512	0.3	0.25	0.264	0.261	0.224
NCI-H1299	1.03	0.949	1	0.988	0.972	0.989	1.02	0.979	0.995	0.955										
NCI-H1395	0.934	0.974	0.998	1.23	1.19						0.724	0.806	0.784	0.856	0.782	0.711	0.767	0.678	0.771	0.785
NCI-H1563	0.906	0.839	0.857	0.942	1.07	0.855	0.83	0.91	0.864	0.799										
NCI-H1648											0.433	0.36	0.317	0.386	0.407	0.6	0.476	0.426	0.485	0.367
NCI-H1703	1.05	1.13	1.27	1.41	1.01	0.586	0.678	1.15	0.986	0.417										
NCI-H1792	0.93	0.937	0.905	0.827	0.835	0.936	1.01	0.971	0.938	0.961						0.469	0.586	0.523	0.606	0.586
NCI-H1793	0.542	0.654	0.79	0.575	0.691						0.32	0.379	0.332	0.222	0.23	0.494	0.563	0.458	0.45	0.432
NCI-H2228	0.835	0.914	1.02	1.07	1.08	0.408	0.516	0.39	0.47	0.402	0.271	0.243	0.249	0.239	0.207					
SW 900											0.547	0.629	0.543	0.495	0.446	0.437	0.466	0.425	0.449	0.454

From the supplement of paper PMC10307832
